Reference: patent publication US11873279B2, “Compositions for treatment of ocular diseases” (Perfuse Therapeutics, Inc., priority 2020, dated 2024)

What was measured:
[1] = test system: laser-induced NHP glaucoma model; experiment: Laser-induced NHP glaucoma model, optic nerve head blood flow; assay type: in vivo, non-human primate (NHP); conditions: dose-dependent
Source text: Other examples of relevant animal glaucoma models are Morrison's rat model of chronically elevated IOP and the laser-induced non-human primate (NHP) glaucoma model. Glaucoma in Morrison's rat model is induced by sustained elevation of IOP through hypertonic saline administration via episcleral veins. […] Efficacy in the above-described glaucoma models is defined as reduction in IOP, improvement in optic nerve head or retinal blood flow from baseline, prevention or slowing of the progression of structural neurodegenerative changes such as retinal nerve fiber layer thickness as measured by optical coherence tomography (OCT) or retinal ganglion cell counts on flat mount as well as functional changes such as electroretinography (ERG) or contrast sensitivity after treatment with a composition containing Edonentan crystalline forms.

[2] = Slurry conversion of crystalline forms, XRPD confirmation (thermodynamic stability); assay type: physicochemical
Procedure: For example, a disclosed crystalline form (e.g., Form 4), may be stored under practical and economical storage conditions, while retaining physical properties so that it may be manufactured into a dosage form. In another set of examples, a disclosed crystalline form (e.g., Form 1, Form 2, Form 3) are converted to disclosed crystalline form (e.g., Form 4). For example, heating a slurry of crystalline Form 1 in about 20 mL of a mixture of isopropanol and water (1:2) at 80° C. for 24 hours, and then cooling and filtering the sample obtained from the solution affords the crystalline Form 4. In another example, stirring the amorphous form of a compound of Formula I in 20 mL of water at 25° C. for 15 hours affords crystalline Form 2, and then subsequently heating crystalline Form 2 at 100° C. for 40 hours followed by filtration affords the crystalline Form 4. In yet another example, heating a slurry of the anhydrous crystalline Form 3 in 30 mL of water at 80° C. for 40 hours and then cooling and filtering the sample obtained from the solution affords the crystalline Form 4. […] In an embodiment, a disclosed crystalline form may have improved chemical and/or physical stability when e.g., compounded in a pharmaceutical formulation, as compared to e.g., the amorphous form. In some embodiments, the crystalline form is crystalline Form 4.
In an alternate method, 150 mg of Edonentan (Form 3) was added to a mixture of isopropanol and water (1 mL and 2 mL, respectively). The resulting slurry was stirred at 15° C. for 48 hours and then filtered.
In an alternate method, 200 mg of Edonentan (Form 1) was added to a mixture of isopropanol and water (1.3 mL and 2.6 mL, respectively). The resulting solution was heated to 80° C. and stirred for 24 h, then cooled and filtered.

SMILES	Optic nerve head blood flow [1]	Thermodynamic stability relative to Form 1 ([2]; Form 1 in isopropanol/water (1.3 mL/2.6 mL), 80° C., 24 h, converted to Form 4 by XRPD)	Thermodynamic stability relative to Form 3 ([2]; Form 3 slurry in isopropanol/water (1 mL/2 mL), 15° C., 48 hours, converted to Form 4 by XRPD)	Thermodynamic stability compared to the other crystalline forms ([2]; summary statement of Example 6)
Cc1onc(NS(=O)(=O)c2ccccc2-c2ccc(-c3ncco3)cc2CN(C)C(=O)CC(C)(C)C)c1C [Edonentan, N-[[2′-[[(4,5-dimethyl-3-isoxazolyl)amino]sulfonyl]-4-(2-oxazolyl)[1,1′-biphenyl]-2-yl]methyl]-N,3,3-trimethylbutanamide]	improve optic nerve head blood flow in a dose-dependent manner	–	–	–
Cc1onc(NS(=O)(=O)c2ccccc2-c2ccc(-c3ncco3)cc2CN(C)C(=O)CC(C)(C)C)c1C [Form 4, N-[[2′-[[(4,5-dimethyl-3-isoxazolyl)amino]sulfonyl]-4-(2-oxazolyl)[1,1′-biphenyl]-2-yl]methyl]-N,3,3-trimethylbutanamide]	–	more thermodynamically stable than Form 1	more thermodynamically stable than Form 3	higher thermodynamic stability compared to Form 1, Form 2 and Form 3
